How the values were obtained:
[1] = test system: CLL-PBMC; settings: 72 h
Protocol: (§1) Apoptosis: PBMC (1 million cells/ml) from B-CLL patients or normal subjects were cultured in RPMI media supplemented with 10% FBS, L-glutamine and penicillin/streptomycin at 37° C. in 5% CO2 and treated with either vehicle or the PDE7 inhibitor BRL-50481 for 72 h. Apoptosis was assessed by flow cytometry as the percentage of cells stained with Annexin V and Propidium Iodide (PI) and analyzed by FACScan using CELLQuest software (Becton-Dickinson Immunocytometry System) (18).
(§2) PBMC from CLL patients (n=10) and normal subjects (n=6) were grown in the absence or presence of BRL-50481 (10 μM, 30 μM and 100 μM) for 72 h.

[2] = test system: normal-PBMC; settings: 10, 30 and 100 μM, 72 h, normal subjects n=6
Protocol: as §1, §2

[3] = test system: CD8+ T-lymphocytes; settings: 30 μM, literature (ref 25); cited from earlier work
[4] = test system: monocytes or macrophages; settings: 30 μM, literature (ref 25); cited from earlier work
[5] = test system: CLL-PBMC; settings: literature (refs 8, 9, 13); cited from earlier work

SMILES	dose dependence of apoptosis induction in CLL-PBMC ([1]; 10 μM, 30 μM and 100 μM)	increase in apoptosis in CLL-PBMC ([1]; ≧30 uM, CLL patients n=10, relative to vehicle control)	induction of apoptosis in PBMC from normal subjects [2]	inhibition of IL-5-promoted proliferation of CD8+ T-lymphocytes [3]	effect on TNFα release in monocytes or macrophages [4]	induction of apoptosis in CLL-PBMC [5]
Cc1ccc([N+](=O)[O-])cc1S(=O)(=O)N(C)C [BRL-50481, 3-(N,N-dimethylsulfonamido)-4-methyl-nitrobenzene]	consistently and dose-dependently induced apoptosis	20-40%	not in PBMC from normal subjects	failed to inhibit	little effect	
Cn1c(=O)c2[nH]cnc2n(C)c1=O [theophylline]						induces apoptosis
CN(C(=O)CCCOc1ccc2[nH]c(=O)ccc2c1)C1CCCCC1 [cilostamide]						does not induce apoptosis

— patent publication US8114590B2, “Diagnosis and treatment of chronic lymphocytic leukemia (CLL)” (The Regents of the University of California, priority 2005, dated 2012)
